# Laboratory results: patent US12576040B2, “Ionizable lipids and methods of manufacture and use thereof” (priority 2020, dated 2026)
# Test system: HEK 293 cells
# Test: Firefly Luciferase Assay for mRNA Delivery Efficiency / transfection in vitro
# Type: cell-based
# Parameters: key: +: successfully transfected HEK 293 cells in vitro; −: not active
# Details: Table 12; HEK 293 cells in vitro
# Text: FIG. 32 illustrates luciferase reported expression in vitro and in vivo.
# In certain embodiments, the invention encompasses a new class of ionizable lipids (the Ionizable Lipids of the Invention) synthesized bearing two ionizable amines and two degradable ester linkers to linoleic acid tails or branched tails. DL=DiLinoleic Acid, ADDE=Azane Diyl DiEthyl, Cx/Cy=carbon spacers, DMA=DiMethylAmine, Pyr=Pyridine, PipZ=PiperaZine, PipD=PiperiDine, DIPA=DiIsopropylamine, DM=DiMethyl, BOD=BisOctylDecyl.
# Summary: LNPs were formulated using total lipid concentration of 50 mM comprised of ionizable lipids/DSPC/Cholesterol/PEG-DMG (50:10:38.5:1.5 mol %). Each one of the lipids were solubilized in ethanol until a clear solution was observed. The four lipids were combined to get 50 mM total lipid concentration (25/5/19.25/0.75 mM respectively) and serial dilutions to get 27.74 mM. […] Purified mRNA was ethanol precipitated, washed and resuspended in nuclease-free water to reach a concentration of 1 mg/ml. […] 16 μl Lipid Mix and 32 μl mRNA solution were mixed on Setting 3 and ejected into 48 μl 1×DPBS pH 7.4. The formed LNPS were then diluted into an additional 96 μl 1×DPBS pH 7.4. LNPs were then dialyzed against 1×DPBS pH 7.4 for 6×1 hr. LNPs were then diluted so that 32 ul contained 200 ng and 12K HEK293 cells were transfected with the same […]. • A: Firefly Luciferase Assay for mRNA Delivery Efficiency. After 24 hours of transfection, transfected cells were conditioned to room temperature for 30 minutes prior to the Firefly Luciferase Assay. Quantilum Recombinant Luciferase standard curve was prepared in 10% EMEM in 5-fold serial dilutions. 50 ul of each standard point from the range of 3.9×10^−5 mg/ml to 4.88×10^−3 mg/ml were included in the microplate as a positive enzyme activity control (data not shown) to maintain a linearity of 10^7 RLU/mg/ml. The ONE-Glo substrate, previously conditioned to room temperature for at least 4 hours, was added to each untransfected, transfected and Quantilum wells in a ratio 1:1. Assay plates were incubated for 3 minutes in darkness and immediately introduced into the Cytation 5 Cell Imaging Multi-Mode Reader (Biotek) to read luminescence. The results are illustrated in FIG. 7. • B: Ribogreen Assay for mRNA Encapsulation Efficiency. 1×TE Buffer and Triton Buffer (2% v/v in 1×TE Buffer) were added in duplicates into a black microplate per LNP. LNPs were diluted to 4 ng/ul in 1×DPBS pH 7.4 and added to each TE/Triton well in a ratio 1:1. Two standard curves were included in the Ribogreen Assay, one containing mRNA and 1×TE Buffer and other containing mRNA and Triton Buffer. Each one of these standard curves were used to calculate the mRNA concentration in each TE Buffer or Triton Buffer. This approach using two standard curves is more accurate for calculating the encapsulation efficiency and mRNA concentrations, in comparison to a single standard curve. Standards were included in the microplate after diluted LNPs were added to the plate. Microplates were incubated at 37° C. for 10 minutes to extract LNPs with Triton. Ribogreen reagent was diluted 1:100 in 1×TE Buffer and added to each well in a ratio 1:1. Microplates were immediately introduced into the Cytation 5 Cell Imaging Multi-Mode Reader (Biotek) to read Fluorescence (Ex485/Em528). The results are illustrated in FIG. 8. • C: Dynamic Light Scattering for LNP Size (red dots are PDI right y axis). LNPs were diluted to 6.25 ng/ul in 1×DPBS pH 7.4 and transferred into a quartz cuvette (ZEN2112) to measure size by Dynamic Light Scattering (DLS) in the Zetasizer Nano ZS (Malvern Panalytical) using particle RI of 1.45 and Absorption of 0.001 in 1×PBS at 25° C. with viscosity of 1.02 cP and RI of 1.335.
row,Compound,Transfection +/−
1,CCCCC/C=C\C/C=C\CCCCCCCCOC(=O)CCN(CCCN(C)C)CCC(=O)OCCCCCCCC/C=C\C/C=C\CCCCC (racemic) [DL-ADDE-C2/C3-DMA],+
2,CCCCC/C=C\C/C=C\CCCCCCCCOC(=O)CCN(CCCN1CCCC1)CCC(=O)OCCCCCCCC/C=C\C/C=C\CCCCC (racemic) [DL-ADDE-C2/C3-Pyr],+
3,CCCCC/C=C\C/C=C\CCCCCCCCOC(=O)CCN(CCCCN1CCN(C)CC1)CCC(=O)OCCCCCCCC/C=C\C/C=C\CCCCC (racemic) [DL-ADDE-C2/C4-4Me-PipZ],+
4,CCCCC/C=C\C/C=C\CCCCCCCCOC(=O)CCCCN(CCCCC(=O)OCCCCCCCC/C=C\C/C=C\CCCCC)CCCCN1CCCCC1 (racemic) [DL-ADDE-C4/C4-PipD],+
5,CCCCC/C=C\C/C=C\CCCCCCCCOC(=O)CCN(CCC(=O)OCCCCCCCC/C=C\C/C=C\CCCCC)CCN1CCN(C)CC1 (racemic) [DL-ADDE-C2/C2-4Me-PipZ],+
6,CCCCC/C=C\C/C=C\CCCCCCCCOC(=O)CCN(CCCN1CCN(C)CC1)CCC(=O)OCCCCCCCC/C=C\C/C=C\CCCCC (racemic) [DL-ADDE-C2/C3-4Me-PipZ],+
7,CCCCC/C=C\C/C=C\CCCCCCCCOC(=O)CCN(CCCCN(C)C)CCC(=O)OCCCCCCCC/C=C\C/C=C\CCCCC (racemic) [DL-ADDE-C2/C4-DMA],+
8,CCCCC/C=C\C/C=C\CCCCCCCCOC(=O)CCCCN(CCCCC(=O)OCCCCCCCC/C=C\C/C=C\CCCCC)CCCCN1CCN(C)CC1 (racemic) [DL-ADDE-C4/C4-4Me-PipZ],+
9,CCCCC/C=C\C/C=C\CCCCCCCCOC(=O)CCN(CCC(=O)OCCCCCCCC/C=C\C/C=C\CCCCC)CCN(C)C (racemic) [DL-ADDE-C2/C2-DMA],+
10,CCCCC/C=C\C/C=C\CCCCCCCCOC(=O)CCN(CCNC(=O)OC(C)(C)C)CCC(=O)OCCCCCCCC/C=C\C/C=C\CCCCC (racemic) [DL-ADDE-C2/C2-BocA],−
11,CCCCC/C=C\C/C=C\CCCCCCCCOC(=O)CCN(CCN)CCC(=O)OCCCCCCCC/C=C\C/C=C\CCCCC (racemic) [DL-ADDE-C2/C2-DeBocA],−
12,CCCCC/C=C\C/C=C\CCCCCCCCOC(=O)CCN(CCC(=O)OCCCCCCCC/C=C\C/C=C\CCCCC)CC(C)(C)CN(C)C (racemic) [DL-ADDE-C2/C3-DM-DMA],−
13,CCCCCCCCCCC(CCCCCCCC)COC(=O)CCN(CCC(=O)OCC(CCCCCCCC)CCCCCCCCCC)CCN1CCN(C)CC1 (centres unmarked) [BODD-ADDE-C2/C2-4Me-PipZ],+
14,CCCCC/C=C\C/C=C\CCCCCCCCOC(=O)CCN(CCC(=O)OCCCCCCCC/C=C\C/C=C\CCCCC)CCN1CCCCC1 (racemic) [DL-ADDE-C2/C2-PipD],+
15,CCCCC/C=C\C/C=C\CCCCCCCCOC(=O)CCN(CCC(=O)OCCCCCCCC/C=C\C/C=C\CCCCC)CCN(C(C)C)C(C)C (racemic) [DL-ADDE-C2/C2-DIPA],−
16,CCCCC/C=C\C/C=C\CCCCCCCCOC(=O)CCCCN(CCCCC(=O)OCCCCCCCC/C=C\C/C=C\CCCCC)CCCCN(C)C (racemic) [DL-ADDE-C4/C4-DMA],+
17,CCCCCCCCCCC(CCCCCCCC)COC(=O)CCN(CCCCN1CCN(C)CC1)CCC(=O)OCC(CCCCCCCC)CCCCCCCCCC (centres unmarked) [BOD-ADDE-C2/C4-4-Me-PipZ],+

# Same assay, conditions: Table 13A
row,Compound,Transfection +/−
1,CCCCC/C=C\C/C=C\CCCCCCCCOC(=O)CCN(CCCO)CCC(=O)OCCCCCCCC/C=C\C/C=C\CCCCC (racemic) [DL-ADDE-PA],−
2,CCCCC/C=C\C/C=C\CCCCCCCCOC(=O)CCN(CCO)CCC(=O)OCCCCCCCC/C=C\C/C=C\CCCCC (racemic) [DL-ADDE-EA],−
3,CCCCC/C=C\C/C=C\CCCCCCCCOC(=O)CCN(CCC(=O)OCCCCCCCC/C=C\C/C=C\CCCCC)CCC(C)C (racemic) [DL-ADDE-IP],−

# Same assay, conditions: Table 13C
row,Compound,Transfection +/−
1,CCCCC/C=C\C/C=C\CCCCCCCC(=O)NCCN(C)C [L-Amide-DMA],−
2,CCCCC/C=C\C/C=C\CCCCCCCC(=O)NCCSSCCN [L-Amide-AEDS],−
3,CCCCC/C=C\C/C=C\CCCCCCCC(=O)NCCN [L-Amide-AE],−

# Test system: not listed separately
# Test: physchem
# Type: physicochemical
# Details: not given
# Experimental: The pH-dependence of proton NMR chemical shifts was used to measure the pKa's of the ionizable lipid water-soluble analogues (WSA) following published methods5,6. Chemical shifts of piperazine, imidazole, 2-chloroacetic acid and acetic acid were used as internal pH indicators. Solutions for MC3-WSA were prepared with 100 mM KCl, 2 mM piperazine, 2 mM imidazole, and 5 mM water soluble ionizable lipid analogue in 95% H2O-5% D2O. Solutions for the terminal(N1) and aza amines(N2) at the p-position of carboxylic esters of C24-WSA were prepared with 100 mM KCl, 2 mM piperazine, 2 mM imidazole, 0.2 mM DSS, and 5 mM water soluble ionizable lipid analogue in 95% H2O-5% D2O. Solutions for the internal amine (N3) of C24-WSA were prepared with 100 mM KCl, 2 mM chloroacetic acid, 2 mM acetic acid, 0.2 mM DSS, and 5 mM water soluble ionizable lipid analogue in 95% H2O-5% D2O. Solutions were split into two equal volumes and one titrated to a lower pH using 0.1 M HCl and the other to an upper pH using 0.1 M NaOH where the lower and upper pH bracketed the desired range of pH. Intermediate pH values were obtained by mixing different proportions of these two solutions. NMR measurements were performed on a Bruker 400 MHz spectrometer where 1H spectra were acquired at each of ˜24 pH values ranging from the lower to upper pH. […] Chemical shifts from piperazine, imidazole, 2-chloroacetic acid, and acetic acid were then used to calculate the pH of each solution according to published methods5,6 and the chemical shifts of protons adjacent to each nitrogen in the ionizable lipid water sluble analogue headgroup were fit to the Henderson-Hasselbalch equation to provide the pKa of each Nitrogen. Spectra are in Supplementary FIG. 2.
row,Compound,difference between NMR-measured and theoretical pKas
1,"CCCCCCCCCCC(CCCCCCCC)COC(=O)CCN(CCCCN1CCN(C)CC1)CCC(=O)OCC(CCCCCCCC)CCCCCCCCCC (centres unmarked) [Lipid C24, Bis(2-octyldodecyl) 3,3′-((4-(4-methylpiperazin-1-yl)butyl)azanediyl)dipropionate]",≤ 0.4 units

# Test system: not given
# Test: not given
# Type: physicochemical
# Details: Table 11a
# Experimental: In certain embodiments, the pKa of the Ionizable Lipids of the Invention included in the LNP is measured by fluorescent enhancement of an anionic lipophilic dye TNS binding to the LNP containing the ionizable lipid. Prior studies have shown that the TNS pKa needs to be near 6.5 for efficient delivery to liver upon IV administration. The pKa in the aqueous phase can be predicted by software such ACDLabs Percepta, resulting in pKas that are higher than the TNS pKa. Given the importance of the LNP pKa in determining their efficiency, we developed new methods (zeta potential, ^1H NMR, modeling) to link the intrinsic pKa of the ionizable lipid to LNP ionization properties, in order to rationally design effective systems for mRNA delivery.
# In certain embodiments, the hydrophilic DMG-PEG forms the shell of the LNP. The amount of nucleic acid is represented by the NP mole ratio of the amine on the ionizable lipid to the phosphate groups on the nucleic acid backbone and is typically 3-6. In certain embodiments, the pKa of the LNP to be in the 6-7 range corresponding to the pH in the early endosome. […] The pKa of the LNP was measured using the pH-dependence of fluorescence enhancement of the anionic dye TNS. In certain embodiments, the pKa-dependent endosomal release mechanism was described as an ion-pairing event between the cationic protonated ionizable lipid and anionic endosomal phospholipids where a divergent cone-shape lipid tail of the ionizable lipid facilitates membrane rupture.
Compound,ΔpKa = Classic-Galas,ΔpKa = Classic-TNS
"CCCCC/C=C\C/C=C\CCCCCCCCOCC(CN(C)C)OCCCCCCCC/C=C\C/C=C\CCCCC (centres unmarked) [DLinDMA, 1,2-dilinoleyloxy-N,N-dimethylaminopropane]",1.6,1.8
CCCCCCCC(=O)N(CCCN(C)C)C(CCCCCCCCC(=O)OC(CCCCCC)CCCCCC)CCCCCCCCC(=O)OC(CCCCCC)CCCCCC [Acuitas Compound 10],3.04,3.24
CCCCCCCCCOC(=O)CCCCCCCN(CCO)CCCCCCCC(=O)OC(CCCCCCCC)CCCCCCCC [Moderna Lipid 5],3.34,2.34
CCCCC/C=C\C/C=C\CCCCCCCCC1(CCCCCCCC/C=C\C/C=C\CCCCC)OCC(CCN(C)C)O1 (centres unmarked) [KC2],2.32,2.62
